Publication PMC5537346, “Characterisation and pharmacological analysis of a crustacean G protein-coupled receptor: the red pigment-concentrating hormone receptor of Daphnia pulex” (Scientific Reports, 2017)
Where two headings read alike, the source gives them in different places. Where a SMILES comes first, the peptide text is derived from it. [ ]: non-standard residue; d: D form. pGlu = O=C1CC[C@@H](C(=O)O)N1

Target: T1, Dappu-RPCHR (Daphnia pulex RPCH receptor) (Daphnia pulex, UniProt A0A240FBD5)
T1 sequence (A0A240FBD5 1-451): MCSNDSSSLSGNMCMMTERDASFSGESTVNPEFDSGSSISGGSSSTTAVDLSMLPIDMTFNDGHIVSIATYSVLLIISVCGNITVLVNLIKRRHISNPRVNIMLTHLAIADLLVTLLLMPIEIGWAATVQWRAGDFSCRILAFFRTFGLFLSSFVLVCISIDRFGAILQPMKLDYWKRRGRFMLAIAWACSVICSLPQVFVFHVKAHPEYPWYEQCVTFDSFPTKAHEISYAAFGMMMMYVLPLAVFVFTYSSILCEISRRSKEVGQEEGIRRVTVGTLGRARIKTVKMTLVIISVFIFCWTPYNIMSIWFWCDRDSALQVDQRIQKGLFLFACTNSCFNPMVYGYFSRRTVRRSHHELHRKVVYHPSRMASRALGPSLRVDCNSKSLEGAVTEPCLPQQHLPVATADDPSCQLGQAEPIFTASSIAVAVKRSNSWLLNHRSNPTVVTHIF
Assay: in vitro cell-based bioluminescence (aequorin Ca2+) assay on Dappu-RPCHR expressing CHO-WTA11 cells
Conditions: for fold lower affinity / potency relative to Dappu-RPCH: from EC50 values
Description: Pharmacological analyses were performed in Chinese hamster ovary (CHO) WTA11 cells stably co-expressing the bioluminescent protein apoaequorin and the promiscuous Gα16 subunit, which couples most agonist-induced GPCRs to the phospholipase C and Ca^2+ pathway, irrespective of their natural signalling cascade.
CHO-WTA11 cells were cultured in monolayers in Dulbecco’s Modified Eagles Medium nutrient mixture F12-Ham (DMEM/F12) with L-glutamine, 15 mM HEPES, sodium bicarbonate and phenol red (Sigma-Aldrich) supplemented with 100 IU/ml penicillin and 100 µg/ml streptomycin (Gibco), 10% heat-inactivated fetal bovine serum (Gibco) and […] zeocin (Gibco). All cells were maintained in an incubator at 37 °C with a constant supply of 5% CO2.
Transfections with pcDNA3.1-Dappu-RPCHR or empty pcDNA3.1 vector were carried out in T75 flasks at 60–80% confluency. Transfection medium was prepared using the Lipofectamine LTX Kit (Invitrogen) with 2.5 ml Opti-MEM® (Gibco), 12.5 µl PlusTM Reagent and 5 µg vector construct in 5 ml polystyrene round-bottom tubes. After a 5 min incubation period at room temperature, 30 µl LTX was added to the medium. After a further incubation period of 30 min at room temperature, the medium was removed and DNA/LTX mix was added dropwise to the cells followed by 3 ml of fresh complete medium.
Following transfection, cells were incubated overnight (37 °C, 5% CO2), then 10 ml of cell medium was added followed by a second overnight incubation (37 °C, 5% CO2). Ligand-induced changes in intracellular Ca^2+ were then monitored in the cells as described below.
CHO-WTA11 cells transfected with receptor construct (or empty vector) plasmid were detached with PBS, complemented with 0.2% EDTA (pH 8.0), and rinsed off the flask with DMEM/F12 with L-glutamine and 15 mM HEPES (Sigma-Aldrich). The number of viable and nonviable cells was determined using a TC20 automated Cell Counter (BIO-RAD). The cells were pelleted for 5 minutes at 800 rpm and resuspended to a density of 5.10^6 cells/ml in sterile filtered bovine serum albumin (BSA) medium (DMEM/F12 with L-glutamine and 15 mM Hepes, supplemented with 0.1% BSA) and loaded with 5 µM Coelenterazine_h (Invitrogen) for 4 h in the dark, at room temperature, while gently shaking to reconstitute the holo-enzyme aequorin. After a 10-fold dilution, cell solution (50 µl) was delivered to each well in a 96-well plate (~25000 cells/well) and cells were exposed to potential ligands reconstituted in BSA medium and distributed across the plate. In every row, BSA medium alone was placed in one well to serve as the negative control (blank). The Ca^2+ response was recorded for 30 s on a Mithras LB 940 (Berthold Technologies). After 30 s, 0.1% Triton X-100, a non-ionic surfactant, was added to the same well to measure the total cellular Ca^2+ response. The total response (ligand + Triton X-100), which is directly related to the number of cells present in the well, was used to normalise the response. The response of each negative control was subtracted from the luminescence obtained for wells within the same row. Calculations were made using the output file from the Microwin software (Berthold Technologies) in Excel (Microsoft). Further analysis was done in GraphPad Prism 5.

[1] = Table 1, AKH/RPCH and related peptides, calculated from dose-response curves
[2] = Table 2, analogues of Dappu-RPCH

SMILES	EC50 [1] [pM]	EC50 [2] [pM]	also measured
CC(C)[C@H](NC(=O)[C@@H]1CCC(=O)N1)C(=O)N[C@@H](CC(N)=O)C(=O)N[C@@H](Cc1ccccc1)C(=O)N[C@@H](CO)C(=O)N1CCC[C@H]1C(=O)N[C@@H](CO)C(=O)N[C@@H](Cc1c[nH]c2ccccc12)C(N)=O [Anaim-AKH, pQVNFSPSWamide] ([pGlu]VNFSPSW-NH2)	224		
CC(C)[C@H](NC(=O)[C@@H]1CCC(=O)N1)C(=O)N[C@@H](CC(N)=O)C(=O)N[C@@H](Cc1ccccc1)C(=O)N[C@@H](CO)C(=O)N[C@H](C(=O)N[C@@H](CCCCN)C(=O)N[C@@H](Cc1c[nH]c2ccccc12)C(N)=O)[C@@H](C)O [Argsi-RPCH, pQVNFSTKWamide] ([pGlu]VNFSTKW-NH2)	21300		
CC(C)C[C@H](NC(=O)[C@@H]1CCC(=O)N1)C(=O)N[C@@H](CC(N)=O)C(=O)N[C@@H](Cc1ccccc1)C(=O)N[C@@H](CO)C(=O)N1CCC[C@H]1C(=O)N[C@@H](CO)C(=O)N[C@@H](Cc1c[nH]c2ccccc12)C(N)=O [Corpu-AKH, pQLNFSPSWamide] ([pGlu]LNFSPSW-NH2)	212		EC50 values (in words): more or less the same as for Anaim-AKH
CC(C)[C@H](NC(=O)[C@@H]1CCC(=O)N1)C(=O)N[C@@H](CC(N)=O)C(=O)N[C@@H](Cc1ccccc1)C(=O)N[C@@H](CO)C(=O)N[C@H](C(=O)NCC(=O)N[C@@H](Cc1c[nH]c2ccccc12)C(N)=O)[C@@H](C)O [Grybi-AKH, pQVNFSTGWamide] ([pGlu]VNFSTGW-NH2)	66.7		EC50: 67 pM
CC(C)[C@H](NC(=O)[C@@H]1CCC(=O)N1)C(=O)N[C@@H](CC(N)=O)C(=O)N[C@@H](Cc1ccccc1)C(=O)N[C@H](C(=O)N1CCC[C@H]1C(=O)N[C@@H](CO)C(=O)N[C@@H](Cc1c[nH]c2ccccc12)C(N)=O)[C@@H](C)O [Libau-AKH, pQVNFTPSWamide] ([pGlu]VNFTPSW-NH2)	179		
CC(C)[C@H](NC(=O)[C@@H]1CCC(=O)N1)C(=O)N[C@@H](CC(N)=O)C(=O)N[C@@H](Cc1ccccc1)C(=O)N[C@@H](CO)C(=O)N1CCC[C@H]1C(=O)NCC(=O)N[C@@H](Cc1c[nH]c2ccccc12)C(N)=O [Manto-CC, pQVNFSPGWamide] ([pGlu]VNFSPGW-NH2)	100		EC50 values (in words): more or less the same as for Anaim-AKH
CC(C)C[C@H](NC(=O)[C@@H]1CCC(=O)N1)C(=O)N[C@@H](CC(N)=O)C(=O)N[C@@H](Cc1ccccc1)C(=O)N[C@@H](CO)C(=O)N[C@@H](CO)C(=O)NCC(=O)N[C@@H](Cc1c[nH]c2ccccc12)C(N)=O [Nepci-AKH, pQLNFSSGWamide] ([pGlu]LNFSSGW-NH2)	272		fold lower affinity / potency relative to Dappu-RPCH: about 4 fold
CC(C)C[C@H](NC(=O)[C@@H]1CCC(=O)N1)C(=O)N[C@@H](CC(N)=O)C(=O)N[C@@H](Cc1ccccc1)C(=O)N[C@@H](CO)C(=O)N1CCC[C@H]1C(=O)NCC(=O)N[C@@H](Cc1c[nH]c2ccccc12)C(N)=O [Panbo-RPCH, pQLNFSPGWamide] ([pGlu]LNFSPGW-NH2)	7930		
CC(C)[C@H](NC(=O)[C@@H]1CCC(=O)N1)C(=O)N[C@@H](CC(N)=O)C(=O)N[C@@H](Cc1ccccc1)C(=O)N[C@@H](CO)C(=O)N1CCC[C@H]1C(=O)N[C@@H](CC(N)=O)C(=O)N[C@@H](Cc1c[nH]c2ccccc12)C(N)=O [Peram-CAH-I, pQVNFSPNWamide] ([pGlu]VNFSPNW-NH2)	393		EC50 values (in words): more or less the same as for Anaim-AKH
CC(C)[C@H](NC(=O)[C@@H]1CCC(=O)N1)C(=O)N[C@@H](CC(N)=O)C(=O)N[C@@H](Cc1ccccc1)C(=O)N[C@@H](CO)C(=O)N1CCC[C@H]1C(=O)N[C@@H](CO)C(=O)N[C@@H](Cc1c[nH]c2ccccc12)C(=O)NCC(=O)N[C@@H](CC(N)=O)C(N)=O [Placa-HrTH, pQVNFSPSWGNamide] ([pGlu]VNFSPSWGN-NH2)	664		EC50: 660 pM; fold lower affinity / potency relative to Dappu-RPCH: ca. 10 fold
CC(C)C[C@H](NC(=O)[C@@H]1CCC(=O)N1)C(=O)N[C@@H](CC(N)=O)C(=O)N[C@@H](Cc1ccccc1)C(=O)N[C@@H](CO)C(=O)N[C@H](C(=O)NCC(=O)N[C@@H](Cc1c[nH]c2ccccc12)C(N)=O)[C@@H](C)O [Schgr-AKH-II, pQLNFSTGWamide] ([pGlu]LNFSTGW-NH2)	237		fold lower affinity / potency relative to Dappu-RPCH: about 4 fold
C[C@H](NC(=O)[C@@H]1CCC(=O)N1)C(=O)N[C@@H](CC(N)=O)C(=O)N[C@@H](Cc1ccccc1)C(=O)N[C@@H](CO)C(=O)N[C@H](C(=O)N[C@@H](CO)C(=O)N[C@@H](Cc1c[nH]c2ccccc12)C(N)=O)[C@@H](C)O [[Ala^2]Dappu-RPCH, pQANFSTSWamide] ([pGlu]ANFSTSW-NH2)		17700	
CC(C)[C@H](NC(=O)[C@@H]1CCC(=O)N1)C(=O)N[C@@H](C)C(=O)N[C@@H](Cc1ccccc1)C(=O)N[C@@H](CO)C(=O)N[C@H](C(=O)N[C@@H](CO)C(=O)N[C@@H](Cc1c[nH]c2ccccc12)C(N)=O)[C@@H](C)O [[Ala^3]Dappu-RPCH, pQVAFSTSWamide] ([pGlu]VAFSTSW-NH2)		156000	
CC(C)[C@H](NC(=O)[C@@H]1CCC(=O)N1)C(=O)N[C@@H](CC(N)=O)C(=O)N[C@@H](C)C(=O)N[C@@H](CO)C(=O)N[C@H](C(=O)N[C@@H](CO)C(=O)N[C@@H](Cc1c[nH]c2ccccc12)C(N)=O)[C@@H](C)O [[Ala^4]Dappu-RPCH, pQVNASTSWamide] ([pGlu]VNASTSW-NH2)		299000	
CC(C)[C@H](NC(=O)[C@@H]1CCC(=O)N1)C(=O)N[C@@H](CC(N)=O)C(=O)N[C@@H](Cc1ccccc1)C(=O)N[C@@H](C)C(=O)N[C@H](C(=O)N[C@@H](CO)C(=O)N[C@@H](Cc1c[nH]c2ccccc12)C(N)=O)[C@@H](C)O [[Ala^5]Dappu-RPCH, pQVNFATSWamide] ([pGlu]VNFATSW-NH2)		3610	
CC(C)[C@H](NC(=O)[C@@H]1CCC(=O)N1)C(=O)N[C@@H](CC(N)=O)C(=O)N[C@@H](Cc1ccccc1)C(=O)N[C@@H](CO)C(=O)N[C@@H](C)C(=O)N[C@@H](CO)C(=O)N[C@@H](Cc1c[nH]c2ccccc12)C(N)=O [[Ala^6]Dappu-RPCH, pQVNFSASWamide] ([pGlu]VNFSASW-NH2)		532	
CC(C)[C@H](NC(=O)[C@@H]1CCC(=O)N1)C(=O)N[C@@H](CC(N)=O)C(=O)N[C@@H](Cc1ccccc1)C(=O)N[C@@H](CO)C(=O)N[C@H](C(=O)N[C@@H](C)C(=O)N[C@@H](Cc1c[nH]c2ccccc12)C(N)=O)[C@@H](C)O [[Ala^7]Dappu-RPCH, pQVNFSTAWamide] ([pGlu]VNFSTAW-NH2)		355	
CC(C)[C@H](NC(=O)[C@@H]1CCC(=O)N1)C(=O)N[C@@H](CC(N)=O)C(=O)N[C@@H](Cc1ccccc1)C(=O)N[C@@H](CO)C(=O)N[C@H](C(=O)N[C@@H](CO)C(=O)N[C@@H](C)C(N)=O)[C@@H](C)O [[Ala^8]Dappu-RPCH, pQVNFSTSAamide] ([pGlu]VNFSTSA-NH2)		131000	
CC(=O)N[C@@H](C)C(=O)N[C@H](C(=O)N[C@@H](CC(N)=O)C(=O)N[C@@H](Cc1ccccc1)C(=O)N[C@@H](CO)C(=O)N[C@H](C(=O)N[C@@H](CO)C(=O)N[C@@H](Cc1c[nH]c2ccccc12)C(N)=O)[C@@H](C)O)C(C)C [[N-Ac-Ala^1]Dappu-RPCH, [NAc-Ala]-VNFSTSWamide] (Ac-AVNFSTSW-NH2)		48700	fold lower affinity / potency relative to Dappu-RPCH: 750 fold
